The values that follow come from US9125352B2, “Method for maturing and synchronizing conifer somatic embryos” (SweTree Technologies AB, priority 2010, dated 2015).

Assay [1] has as its system embryogenic cells, cell-line 06:28:05. As to the kind of experiment: Comparison of inositol with other sugar alcohols and with sucrose on solid DKM+ABA maturation medium (Example 3). It counts as cell-based, Norway spruce. As to conditions: three weeks. The text has this: The action of 0.25, M inositol in improving somatic embryo quality is likely to be partly osmotic, partly nutritional, with cell signaling effects also involved. The inventors tested whether 0.25, M inositol could be replaced with 0.25, M of other sugar alcohols (mannitol and sorbitol) or 0.25, M extra sucrose by spreading 1.0, to 1.5, g fresh weight of embryogenic cells, cell-line 06:28:05, on each of six plates of solid DKM+ABA maturation medium for continued growth and development over four weeks, with one subculture after 2, weeks. The cells were then subcultured onto three plates each (1.0-1.5, g cells per plate) of medium containing in addition either a) 0.25, M inositol, or b) 0.125, M mannitol and 0.125, M sorbitol, or c) 0.25, M sucrose. Control cells continued on standard medium. After three weeks, embryos of good quality were transferred to germination medium, ten embryos per petri dish, as a rough quantitative estimate of quality.

Another assay concerns somatic embryo cultures. Nature of the assay: Embryo culture in medium with plasmolytic or near plasmolytic concentration of sugar alcohol (general findings). Format: cell-based. As to conditions: plasmolytic or near plasmolytic concentration. The text has this:
The invention is based on a serendipitous discovery. Gene transfer to spruce somatic embryos using a particle gun was experimented with, using a special medium originally designed for use with gene transfer for embryogenic cultures, containing 0.25, M myo-inositol. The resulting plasmolysis reduces damage during penetration by the gold particles, since it relaxes the tension in the cell membranes and minimizes tearing. By mistake, the somatic embryos were left in this medium for 12, days instead of returning them to the normal proliferation medium as intended. […] Consequently, the cells are first plasmolyzed and then gradually deplasmolyzed.

As to `OC[C@H]1O[C@@](CO)(O[C@H]2O[C@H](CO)[C@@H](O)[C@H](O)[C@H]2O)[C@@H](O)[C@@H]1O` [sucrose, reference compound], in assay [1] (0.25 M addition to DKM+ABA), the “effect on embryo quality” value is on record as “clearly detrimental effect”. For the same compound, the “Plates with 10 high quality embryos” value in assay [1] (addition to standard medium: 0.25 M (or 0.125 M + 0.125 M), three plates of 1.0-1.5 g cells per treatment) is recorded as 0.
On to `OC[C@@H](O)[C@@H](O)[C@H](O)[C@H](O)CO` [mannitol], for which the “effect on maturation in the embryo cultures” value with somatic embryo cultures was “induce synchronous maturation”.
Turning to `OC[C@@H](O)[C@@H](O)[C@H](O)[C@@H](O)CO` [sorbitol], the “effect on maturation in the embryo cultures” value in the assay on somatic embryo cultures is “induce synchronous maturation”.
